The values that follow are results of earlier work, collected in US20240165126A1 (TONIX PHARMACEUTICALS HOLDING CORP., priority 2021, published 2024).

For the series the following is noted: orally administered; extensive first pass hepatic metabolism; Smith et al. 2012.

Regarding `C=CCN1CC[C@]23c4c5ccc(O)c4O[C@H]2C(=O)CC[C@@]3(O)[C@H]1C5` [Naloxone], the systemic bioavailability was no more than 2%.
